The results in this text go back to patent publication US7923004B2 (priority 2006, dated 2011).

Common to all, as to format: cell-based
The subject of series [1] is HCV genotype 1a replicon (En5-3/Htat2ANeo cells). Nature of the series: HCV-1a Replicon RNA (Taqman) inhibition assay. Conditions: Hepatitis C virus, 72 h. In general terms: In antiviral work, replicon cells carry a viral genome segment that copies itself.
The nature of series [2]: Cell Titer-Glo Cell Viability Assay, genotype 1a cells. Conditions: human, En5-3/Htat2ANeo (HCV genotype 1a replicon) cells, HCV-1a assays, read-out: Cytotoxicity* (CC50). As to the method:
(§1) Cell Seeding and Compound Treatment: Huh-Luc-Neo (Genotype 1b) or En5-3/Htat2ANeo (Genotype 1a) cells are seeded at 5000-7000/well in an opaque-walled 96 plate with Growth Medium (DMEM phenol red free+PS+2 mM glutamine; 100 ul/well). The compounds to be tested for inhibition of cell viability are added to the experimental wells so as to generate a dose response curve (8-9 concentrations, 10 μl/well at 10× assay concentration) and the cells are then incubated (5% CO2, 37° C.) for 72 h.
(§2) Reagent Preparation and Assay: After completion of the incubation period the cell viability measurements are made using the Cell Titre Glo Assay (Promega) according to the manufacturer's recommended protocol. Briefly, the CellTiter-Glo Buffer is thawed and equilibrated to room temperature prior to use. The lyophilized CellTiter-Glo Substrate is also equilibrated to room temperature prior to use. 10 ml of CellTiter-Glo Buffer is then transferred to 1 vial of CellTiter-Glo Substrate and mixed gently with a Vortex. 100 μl of CellTiter-Glo Assay reagent (CellTiter-Glo Buffer+CellTiter-Glo Substrate Mixture) is added to each well. The well contents are mixed for 5 min. on an orbital shaker at room temperature to induce cell lysis and the luminescence is then measured using a luminometer.
In general terms: ATP-based viability assays read luminescence as a measure of living cells.

For series [3], the system named is HCV genotype 1b replicon (Huh-Luc-Neo cells). The series can be described thus: HCV Replicon Luciferase Assay. As to conditions: Hepatitis C virus, Huh-Luc-Neo cells, genotype 1b, 72 h, read-out: HCV-1b Replicon Inhibition*, Luciferase (EC50).
Series [4] has the same test system. Nature of the series: HCV Replicon RNA (Taqman) Assay, genotype 1b. Conditions: Hepatitis C virus, Huh-Luc-Neo cells, genotype 1b, HCV RNA, 72 h, read-out: HCV-1b Replicon Inhibition*, Taqman (EC50).
The nature of series [5]: Cell Titer-Glo Cell Viability Assay, genotype 1b cells. Conditions: human, Huh-Luc-Neo (HCV genotype 1b replicon) cells, HCV genotype 1b assays, read-out: Cytotoxicity* (CC50). The procedure: as §1, §2
Series [6] has as its system HCV Genotype 1b luc-neo/ET replicon with Y2065H mutation in NS5A. The series can be described thus: Luciferase EC50 in Huh7-Lunet cells with luc-neo/ET/Y2065H mutant vs parental luc-neo/ET replicon. As to conditions: transient replicons, 72 h. As to the method:
Resistance of Compound #64 (Table 1) and related pyrazoles was then determined by treating Huh7-Lunet cells (Koutsoudakis et al, J. Virol. 81(2):588-98, 2007) transiently electroporated with RNAs transcribed from either the luc-neo/ET/Y2065H mutant and the parental luc-neo/ET replicons (Blight et al, J. Virol. 77(5):3181-90, 2003). Huh7-Lunet expressing the luc-neo/ET/Y2065H mutant and the parental luc-neo/ET replicons were treated with selected compounds for 72 hours. EC50 and CC50 values were determined as described in the HCV Replicon Luciferase Assay and CellTiter-Glo Cell Viability Assay protocols. […] CC50s for the compound vs. the luc-neo/ETIY2065H mutant and parental luc-neo/ET replicons were determined to be>33 μM.

For `Cn1nccc1C(=O)N[C@@H](C(=O)N1CCOC[C@H]1C(=O)Nc1ccc(C#Cc2cn(CCC#N)nc2-c2cc(Cl)ccc2O)cc1)c1ccccc1` [Compound 1], in series [1], the EC50 – broadly, the concentration needed to bring the measured effect to its halfway point – is below 1 µM. The CC50 (usually the concentration giving 50% cytotoxicity) at 72 h in series [2] is above 33.3 µM.

In series [1], `N#CCCn1cc(C#Cc2ccc(NC(=O)[C@@H]3COCCN3C(=O)[C@H](NC(=O)c3cnccn3)c3ccccc3)cc2)c(-c2cc(Cl)ccc2O)n1` [Compound 2] came in with an EC50 below 1 µM. Besides, the CC50 at 72 h in series [2] was above 33.3 µM.

In series [1], `N#CCCn1cc(C#Cc2ccc(NC(=O)[C@@H]3COCCN3C(=O)[C@H](NC(=O)NC3CC3)c3ccccc3)cc2)c(-c2cc(Cl)ccc2O)n1` [Compound 3] yielded an EC50 below 1 µM. In addition, the CC50 at 72 h in series [2] was above 33.3 µM.

`N#CCCn1cc(C#Cc2ccc(NC(=O)[C@@H]3COCCN3C(=O)[C@H](NC(=O)N3CCOCC3)c3ccccc3)cc2)c(-c2cc(Cl)ccc2O)n1` [Compound 4]: the EC50 in series [1] was below 1 µM. Besides, in series [2], the CC50 at 72 h was above 33.3 µM.

Consider `Cn1cc(C#Cc2ccc(NC(=O)[C@@H]3COCCN3C(=O)[C@H](NC(=O)c3ccc(C#N)cc3)c3ccccc3)cc2)c(-c2cc(Cl)ccc2O)n1` [Compound 5], for which the EC50 in series [1] is below 1 µM. For the same compound, the CC50 at 72 h in series [2] is above 33.3 µM.

As for `CC(C)n1cc(C#Cc2ccc(NC(=O)[C@@H]3COCCN3C(=O)[C@H](NC(=O)c3ccccc3)c3ccccc3)cc2)c(-c2cc(Cl)ccc2O)n1` [Compound 6], in series [1], the EC50 was below 1 µM. Besides, the CC50 at 72 h in series [2] is above 33.3 µM.

`N#CCCn1cc(C#Cc2ccc(NC(=O)[C@@H]3COCCN3C(=O)[C@H](NC(=O)N3CCC(=O)CC3)c3ccccc3)cc2)c(-c2cc(Cl)ccc2O)n1` [Compound 7]: the EC50 in series [1] was below 1 µM. For the same compound, the CC50 at 72 h in series [2] is above 33.3 µM.

In the case of `C[C@@H]1CN(C(=O)N[C@@H](C(=O)N2CCOC[C@H]2C(=O)Nc2ccc(C#Cc3cn(CCC#N)nc3-c3cc(Cl)ccc3O)cc2)c2ccccc2)C[C@H](C)O1` [Compound 8], the EC50 in series [1] is below 1 µM. Besides, in series [2], the CC50 at 72 h is above 33.3 µM.

In series [1], `Cn1cc(C#Cc2ccc(NC(=O)[C@@H]3COCCN3C(=O)[C@H](NC(=O)c3cccs3)c3ccccc3)cc2)c(-c2cc(Cl)ccc2O)n1` [Compound 9] had an EC50 below 1 µM. Also, in series [2], the CC50 at 72 h is above 33.3 µM.

Turning to `Cn1cc(C#Cc2ccc(NC(=O)[C@@H]3COCCN3C(=O)[C@H](NC(=O)N3CCC3)c3ccccc3)cc2)c(-c2cc(Cl)ccc2O)n1` [Compound 10], in series [1], the EC50 is below 1 µM. For the same compound, the CC50 at 72 h in series [2] is above 33.3 µM.

`CC(C)n1cc(C#Cc2ccc(NC(=O)[C@@H]3COCCN3C(=O)[C@H](NC(=O)NC(C)(C)C)c3ccccc3)cc2)c(-c2cc(Cl)ccc2O)n1` [Compound 11] showed a half-maximal effective concentration (EC50) in series [1] below 1 µM. Moreover, the CC50 at 72 h in series [2] is above 33.3 µM.

Turning to `COCC(=O)N[C@@H](C(=O)N1CCOC[C@H]1C(=O)Nc1ccc(C#Cc2cn(C)nc2-c2cc(Cl)ccc2O)cc1)c1ccccc1` [Compound 12], the EC50 in series [1] is below 1 µM. The CC50 at 72 h in series [2] was above 33.3 µM.

In turn, `N#CCCn1cc(C#Cc2ccc(NC(=O)[C@@H]3COCCN3C(=O)[C@H](NC(=O)c3ccccc3)c3ccccc3)cc2)c(-c2cc(Cl)ccc2O)n1` [Compound 13] gave an EC50 in series [1] below 1 µM. Besides, the CC50 at 72 h in series [2] is above 33.3 µM.

Consider `COC(=O)C1CCCN1C(=O)N[C@@H](C(=O)N1CCOC[C@H]1C(=O)Nc1ccc(C#Cc2cn(CCC#N)nc2-c2cc(Cl)ccc2O)cc1)c1ccccc1` (stereo partly shown) [Compound 14], for which, in series [1], the EC50 was below 1 µM. In series [2], the CC50 at 72 h is above 33.3 µM.

`N#CCCn1cc(C#Cc2ccc(NC(=O)[C@@H]3COCCN3C(=O)[C@H](NC(=O)N3CCC3)c3ccccc3)cc2)c(-c2cc(Cl)ccc2O)n1` [Compound 15] returned an EC50 in series [1] below 1 µM. Besides, the CC50 at 72 h in series [2] is above 33.3 µM.

With `CN1CCN(C(=O)N[C@@H](C(=O)N2CCOC[C@H]2C(=O)Nc2ccc(C#Cc3cn(CCC#N)nc3-c3cc(Cl)ccc3O)cc2)c2ccccc2)CC1` [Compound 16], in series [1], the EC50 was below 1 µM. Further, the CC50 at 72 h in series [2] was 1 to 10 µM.

Consider `Cc1ccc(O)c(-c2nn(C)cc2C#Cc2ccc(NC(=O)[C@@H]3COCCN3C(=O)[C@H](NC(=O)OC(C)(C)C)c3ccccc3)cc2)c1` [Compound 23A], for which the EC50 in series [3] (GETYPE1B) and in series [4] (GETYPE1B) was below 1 µM each time. In series [5], the CC50 at 72 h was above 100 µM. In series [6], the “EC50 Luc-neo-ET-Y2065H/EC50 Luc-neo-ET” value was 6.

On to `Cn1cc(C#Cc2ccc(NC(=O)[C@@H]3COCCN3C(=O)[C@H](NC(=O)C3CC3)c3ccccc3)cc2)c(-c2cc(Cl)ccc2O)n1` [Compound 52], for which the concentration giving a half-maximal response (EC50) in series [3] and in series [4] was below 1 µM each time. Further, the CC50 at 72 h in series [5] lay within 10 to 100 µM. Besides, the “EC50 Luc-neo-ET-Y2065H/EC50 Luc-neo-ET” value in series [6] was determined as 79.

As for `Cn1cc(C#Cc2ccc(NC(=O)[C@@H]3COCCN3C(=O)[C@H](NC(=O)NC(C)(C)C)c3ccccc3)cc2)c(-c2cc(Cl)ccc2O)n1` [Compound 53], the EC50 in series [3] and in series [4] was below 1 µM throughout. Besides, the CC50 at 72 h in series [5] is 10 to 100 µM. Also, the “EC50 Luc-neo-ET-Y2065H/EC50 Luc-neo-ET” value in series [6] was 71.

With `Cn1cc(C#Cc2ccc(NC(=O)[C@@H]3COCCN3C(=O)[C@H](NC(=O)N3CCOCC3)c3ccccc3)cc2)c(-c2cc(Cl)ccc2O)n1` [Example 17], in series [1] (GETYPE1A), the EC50 is below 1 µM. In series [2], the CC50 at 72 h is above 33.3 µM.

As to `CN(C)CCn1cc(C#Cc2ccc(NC(=O)[C@@H]3COCCN3C(=O)[C@H](NC(=O)NOC(C)(C)C)c3ccccc3)cc2)c(-c2cc(Cl)ccc2O)n1` [Example 18], the EC50 in series [1] was in the range of 1 to 10 µM. Also, in series [2], the 50% cytotoxic concentration (CC50) at 72 h lay in the range of 1 to 10 µM.

With `Cc1ccc(O)c(-c2nn(C)cc2C#Cc2ccc(NC(=O)[C@@H]3COCCN3C(=O)[C@H](NC(=O)N3CCOCC3)c3ccccc3)cc2)c1` [Example 19], the EC50 in series [1] was below 1 µM. Also, the CC50 at 72 h in series [2] is above 33.3 µM.

Take `N#CCCn1cc(C#Cc2ccc(NC(=O)[C@@H]3COCCN3C(=O)[C@H](NC(=O)N3CCNC(=O)C3)c3ccccc3)cc2)c(-c2cc(Cl)ccc2O)n1` [Example 20]: in series [1], the EC50 is below 1 µM. Further, the CC50 at 72 h in series [2] was above 33.3 µM.

As for `Cc1ccc(O)c(-c2nn(C)cc2C#Cc2ccc(NC(=O)C3CCCCN3C(=O)[C@]3(NC(=O)OC(C)(C)C)C[C@@H]3c3ccccc3)cc2)c1` (stereo partly shown) [Example 21], the EC50 in series [3] and in series [4] was below 1 µM in each case. Moreover, the CC50 at 72 h in series [5] was in the range of 10 to 100 µM.

In the case of `Cn1cc(C#Cc2ccc(NC(=O)[C@@H]3COCCN3C(=O)[C@H](NC(=O)OC(C)(C)C)c3ccccc3)cc2)c(-c2cc(F)ccc2O)n1` [Example 47], the EC50 in series [3] and in series [4] was below 1 µM in each case. The cytotoxic concentration (CC50) at 72 h in series [5] was above 100 µM.

As to `Cn1cc(C#Cc2ccc(NC(=O)[C@@H]3CCCCN3C(=O)[C@H](NC(=O)OC(C)(C)C)c3cccs3)cc2)c(-c2cc(Br)ccc2O)n1` [Example 48], the EC50 in series [3] and in series [4] was below 1 µM each time. In series [5], the CC50 at 72 h is above 100 µM.

As for `Cn1cc(C#Cc2ccc(NC(=O)[C@@H]3CCCCN3C(=O)[C@@H](NC(=O)OC(C)(C)C)c3ccsc3)cc2)c(-c2cc(Br)ccc2O)n1` [Example 49], the EC50 in series [3] and in series [4] was below 1 µM in each case. For the same compound, in series [5], the CC50 at 72 h fell in the range of 10 to 100 µM.

Turning to `Cc1ccc(O)c(-c2nn(C)cc2C#Cc2ccc(NC(=O)[C@@H]3CCCCN3C(=O)[C@H](NC(=O)OC(C)(C)C)c3cccs3)cc2)c1` [Example 50], the EC50 in series [3] and in series [4] was below 1 µM in each case. Also, in series [5], the CC50 at 72 h is above 100 µM.

Regarding `Cn1cc(C#Cc2ccc(NC(=O)[C@@H]3COCCN3C(=O)[C@H](NC(=O)OC(C)(C)C)c3ccccc3)cc2)c(-c2cc(Cl)ccc2O)n1` [Example 51], the EC50 in series [3] and in series [4] was below 1 µM throughout. Besides, the cytotoxic concentration (CC50) at 72 h in series [5] is 10 to 100 µM.
